“And” between values parts separate entries of the source, which are not always exact repeats. Equal entries are not always repeated. Where two headings read alike, the source gives them in different places.
Experiments:
MiaPaCa-2 cells = assay: Clonogenic assay, MiaPaCa-2; type: cell-based, human; conditions: for IC90: Homo sapiens, MIA PaCa-2, 3 h
Method: (§1) The following PSN-1 cells, PANC1 cells, MiaPaCa-2 cells, H460 cells, DLD-1 WT (wild type) cells, DLD-1 BRCA2 KO (BRCA2 deletion) cells were seeded in 10 cm vitreous cell culture plates at specific cell numbers and incubated for 2 days at 37° C. and under the conditions of 5% CO2, 95% air and 100% relative humidity. On day 3, test compounds TH302 or AST-002-P2 at the specific concentrations were added to the cells, and incubated for 3 hours together with the cells under normoxic (21% O2) and hypoxic conditions (<0.01% O2), respectively. After cells were stimulated by compounds, the cells were washed once with 1×PBS and digested into single cells with pancreatic enzymes for cell counting. The above cells in specific cell numbers were reseeded in a new culture plate and cultured for 7 days to perform single cell colony formation. When single cells in compound culture plates stimulated under normoxic conditions proliferated to about 50 cells, the cultures were removed and stained with 0.5% crystal violet for 40 minutes. After staining, cells were counted for colonies using Colony Counter (VWR) and the IC90 was calculated.

[1] = test system: DLD-1 BRCA2 KO (BRCA2 deletion) cells; assay: Clonogenic assay, DLD-1 BRCA2 KO; type: cell-based; conditions: for IC90: Homo sapiens, 3 h
Method: as §1

[2] = test system: human lung cancer NCI-H460 subcutaneous xenograft; assay: Human lung cancer NCI-H460 subcutaneous xenograft model, compounds B and C; type: in vivo, BALB/c nude mice; conditions: for relative tumor inhibition rate TGI (%): QD×5 per cycle, 2 cycles, Day 28
Method: BALB/c nude mice were subcutaneously inoculated with human lung cancer NCI-H460 cells to establish human lung cancer subcutaneous transplantation tumor model. […] The positive drug Irinotecan 40 mg/kg group was administered by intraperitoneal injection once every 4 days for 7 times, and observed for 4 days.

P-gp = P-gp (Homo sapiens, UniProt P08183); assay: P-gp substrate evaluation, MDCKII-MDR1 penetration test; conditions: for recovery at 2 h: dog; for Pgp substrate status: with and without verapamil
Method: (1) MDCKII-MDR1 cells were cultured in the cell culture bottle. The conditions of the incubator were 37° C., 5% of CO2, and 95% of the relative humidity. When the cell growth confluence was up to 70-90%, the cells were inoculated to the transwell.
The cell suspension was transferred to the upper compartment of the 96-well transwell, wherein each upper compartment contains 50 μL of the cell suspension. The final inoculum density was 5.45×10^5 cells/cm^2.
(1) The transwell culture plate of the MDCKII-MDRT cells was taken out from the incubator. The cell monolayer membrane was rinsed two times with the buffer solution and incubated at 37° C. for 30 min.
(2) The transport rate that the compound was transported from the top-end to the base-end was tested. 75 μL of the buffer solution contained the sample was added to each upper compartment (top-end), and 235 μL of the buffer solution was added to each lower compartment (base-end).
(3) The transport rate that the compound was transported from the base-end to the top-end was tested. 75 μL of the buffer solution was added to each upper compartment (top-end), and 235 μL of the buffer solution contained the sample was added to each lower compartment (base-end).
(6) The upper and lower transits were merged up and then incubated at 37° C. for 2 h.
(7) After the incubation was finished, 50 μL of the samples from each well of the upper compartment and the lower compartment of the transwell culture plate were respectively added to new sample tubes. 200 μL of the acetonitrile containing the internal standard (100 nM Alprazolam, 200 nM Labetalol, 200 nM caffeine and 2 μM Ketoprofen) was added to each sample tube. After the sample tubes were vortexed for 10 min, they were centrifuged at 3220 g for 30 min. 100 μL of the supernatant was taken and diluted with the same volume of the water to perform the LC-MS/MS analysis. Each sample was adopted to the three parallel incubation.
The peak area was calculated by the result of the ion chromatography. The permeability coefficient (Papp, unit: cm/s×10^−6) of the compound was calculated by the formula: […]
In the formula, “VA” refers to the volume of the solution on the acceptor (Ap→Bl was 0.235 mL, and Bl→Ap was 0.075 mL), “Area” refers to the area of the permeable membrane of the 96-well transwell (0.143 cm^2), “time” refers to the incubation time (in second), “[drug]acceptor” refers to the drug concentration of the acceptor after the incubation, and “[drug]initial, donor” refers to the initial concentration of the drug administration before the incubation.
The efflux ratio was calculated by the following formula: […]
In the formula, “Papp (B-A)” refers to the permeability coefficient from the base-end to the top-end, and the term “Papp (A-B)” refers to the permeability coefficient from the top-end to the base-end.
The recovery was calculated by the following formula: […]
In the formula, “VA” refers to the volume of the solution on the acceptor (mL), “VD” refers to the volume of the solution on the donor (mL), “[drug]acceptor” refers to the drug concentration of the acceptor after the incubation, “[drug]donor” refers to the drug concentration of the donor after the incubation, and the term “[drug]initial, donor” refers to the initial concentration of the drug administration before the incubation.

Plasma stability, rat = conditions: for Remaining percentage (%) / Remaining percentage: Rat plasma; for Remaining percentage: after 30 minutes
Method: The frozen plasma was immediately melted in a water bath of 37° C. The plasma was centrifuged at 3, 220 g for 10 minutes to remove the blood clots and the supernatant was collected into a new test tube. The pH of the plasma was checked and recorded. Note: a. Only plasma that has been melted no more than twice since arrival was used; b. Only plasma in the range of pH 7 to pH 8 was used.
1 mM of working solutions of the test compound and the control compound mevinolin were prepared in DMSO. 1 mM of the working solution of the control compound solution in […] was prepared in acetonitrile. 4 μL of the working solution was added to 796 μL of pre-incubated plasma to achieve 5 μM of final concentration. The final concentration of solvent was 0.5%.
[…] The assay is performed in duplicate. At the end of the two hour incubation, 300 μL of quenched solution at room temperature (acetonitrile containing internal standards (acetonitrile, 100 nM Alprazolam, 500 nM Labetalol and 2 μM ketoprofen)) was added to terminate the reaction. Samples at time 0 were prepared by adding 50 μL of standard addition plasma to the new test tubes with 300 μL of quenched solution at room temperature. The test tubes were mixed by vortex for 5 minutes. The samples in the plates were centrifuged at 3, 220×g for 30 minutes at 4° C. to precipitate the proteins. 100 μL of supernatant was transferred to a new plate. The supernatant was diluted with 100 μL of water, mixed well and analysed using LC-MS/MS.

[3] = 21% O2, read-out: IC90 Normoxia
[4] = <0.01% O2, read-out: IC90 Hypoxia
[5] = IC90 ratio normoxic/N2, listed as compound C
[6] = MDCK-MDR1, Recovery (%) AP-BL, verapamil 0 μM
[7] = MDCK-MDR1, Recovery (%) AP-BL, verapamil 100 μM
[8] = MDCK-MDR1, Recovery (%) BL-AP, verapamil 100 μM

Sequence of P-gp (P08183 whole entry): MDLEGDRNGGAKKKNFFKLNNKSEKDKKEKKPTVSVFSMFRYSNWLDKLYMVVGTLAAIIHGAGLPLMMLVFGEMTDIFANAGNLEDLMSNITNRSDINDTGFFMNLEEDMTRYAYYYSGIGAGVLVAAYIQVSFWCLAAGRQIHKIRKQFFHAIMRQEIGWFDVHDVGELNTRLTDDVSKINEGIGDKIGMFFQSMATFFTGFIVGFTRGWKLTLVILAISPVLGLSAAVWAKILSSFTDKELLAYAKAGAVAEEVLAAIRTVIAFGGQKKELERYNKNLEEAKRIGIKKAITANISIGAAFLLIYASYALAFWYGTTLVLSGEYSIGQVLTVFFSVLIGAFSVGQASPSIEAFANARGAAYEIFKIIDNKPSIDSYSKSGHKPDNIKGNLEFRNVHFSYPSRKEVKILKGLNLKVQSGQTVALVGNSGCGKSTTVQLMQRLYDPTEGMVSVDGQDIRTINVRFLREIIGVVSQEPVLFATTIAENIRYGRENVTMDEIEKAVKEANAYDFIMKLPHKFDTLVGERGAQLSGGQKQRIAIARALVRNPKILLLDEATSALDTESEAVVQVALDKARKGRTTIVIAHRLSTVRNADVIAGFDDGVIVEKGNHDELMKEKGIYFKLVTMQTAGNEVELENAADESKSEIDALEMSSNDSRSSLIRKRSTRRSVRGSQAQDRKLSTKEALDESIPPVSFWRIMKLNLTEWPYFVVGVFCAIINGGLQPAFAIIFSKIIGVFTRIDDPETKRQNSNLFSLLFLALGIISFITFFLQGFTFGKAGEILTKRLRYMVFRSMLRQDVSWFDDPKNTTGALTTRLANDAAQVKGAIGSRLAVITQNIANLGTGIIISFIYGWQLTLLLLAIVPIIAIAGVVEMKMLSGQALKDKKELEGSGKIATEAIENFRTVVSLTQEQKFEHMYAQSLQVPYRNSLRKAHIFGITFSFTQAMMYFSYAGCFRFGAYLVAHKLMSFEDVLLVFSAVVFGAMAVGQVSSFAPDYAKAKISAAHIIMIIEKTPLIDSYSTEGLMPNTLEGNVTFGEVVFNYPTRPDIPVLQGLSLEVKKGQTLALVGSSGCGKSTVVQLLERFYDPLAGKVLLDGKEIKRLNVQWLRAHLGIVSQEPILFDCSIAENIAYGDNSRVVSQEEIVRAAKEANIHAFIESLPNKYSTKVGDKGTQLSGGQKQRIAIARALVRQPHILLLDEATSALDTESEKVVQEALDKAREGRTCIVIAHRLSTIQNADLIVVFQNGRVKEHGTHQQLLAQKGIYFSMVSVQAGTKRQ

Row | Structure (SMILES) | IC90 (MiaPaCa-2 cells; [3]) [nM] | IC90 (MiaPaCa-2 cells; [4]) [nM] | HCR (MiaPaCa-2 cells; IC90 ratio normoxic/N2) | IC90 [1, 3] [nM] | IC90 [1, 4] [nM] | HCR ([1]; IC90 ratio normoxic/N2) | relative tumor inhibition rate TGI (%) ([2]; 20 mg/kg i.p.) | recovery at 2 h (P-gp; [6]) [%] | recovery at 2 h (P-gp; [7]) [%] | recovery at 2 h (P-gp; [8]) [%] | Pgp substrate status (P-gp) | Remaining percentage (Plasma stability, rat) [%] | plasma stability (Plasma stability, rat; rat plasma) | also measured
1 | O=[N+]([O-])c1ccc([C@@H](OP(=O)(N2CC2)N2CC2)C(F)(F)F)c2ccccc12 (single isomer, unassigned) [Compound C] | > 10000 | 159 | >63 | > 10000 | 112 | >89 | 90.56 | 57.8 | 61.5 | 66.3 | not substrates for Pgp | – | – | HCR (MiaPaCa-2 cells; [5]): > 63; HCR [1, 5]: > 89; relative tumor inhibition rate TGI (%) ([2]; 40 mg/kg i.p.): 94.33%; complete cure rate on tumors ([2]; group 6, 20 mg/kg, Day35): 20%
2 | O=[N+]([O-])c1ccc(C(OP(=O)(N2CC2)N2CC2)C(F)(F)F)c2ccccc12 (racemic) [Compound A] | – | – | – | – | – | – | – | – | – | – | – | 52.11 | unstable | Remaining percentage (%) (Plasma stability, rat; 15 min): 101 ± 1.33%; Remaining percentage (%) (Plasma stability, rat; 60 min): 88.9 ± 0.537%; Remaining percentage (%) (Plasma stability, rat; 90 min): 84.6 ± 1.20%; Remaining percentage (%) (Plasma stability, rat; 120 min): 69.0% and 69.0 ± 1.10%; Remaining percentage (%) (Plasma stability, rat; 2 h time course, 0 min): 100%; Remaining percentage (%) (Plasma stability, rat; time course, 30 min): 100 ± 2.23%; half-life at 5 µM (Plasma stability, rat; rat plasma): 3.77 h
3 | Cn1c(COP(=O)(NCCBr)NCCBr)cnc1[N+](=O)[O-] [TH-302, Evofosfamide] | 9680 | 388 | 25 | 21900 | 3.01 | 7277 | – | – | – | – | – | – | – | –
4 | O=[N+]([O-])c1ccc([C@H](OP(=O)(N2CC2)N2CC2)C(F)(F)F)c2ccccc12 [Compound B] | – | – | – | – | – | – | 88.51 | 59.3 | 65.2 | 68.3 | not substrates for Pgp | – | – | –
5 | CC(OP(=O)(N1CC1)N1CC1)c1ccc([N+](=O)[O-])c2ccccc12 (stereo not shown) [Compound D] | – | – | – | – | – | – | – | – | – | – | – | 85.49 | relatively unstable | –

Reference: patent US20230339991A1, “HYPOXIA-ACTIVATED DNA ALKYLATING AGENT AND MEDICAL USE THEREOF” (ASCENTAWITS PHARMACEUTICALS, LTD., priority 2020, published 2023)
